Literature values as cited in publication PMC8854719, “Phase 1A/1B dose-escalation and -expansion study to evaluate the safety, pharmacokinetics, food effects and antitumor activity of pamiparib in advanced solid tumours” (British Journal of Cancer, 2021).

Parameters: method as in PMID 33128299
Conditions: humans; current study and Phase 1 study in ovarian cancer; cited from earlier work

C[C@]12CCCN1CC1=NNC(=O)c3cc(F)cc4[nH]c2c1c34 [pamiparib]
Bioavailability: high, with near-complete absorption
